Tested on: Panc-1 cell line
Assay: not given
Parameters: method as in PMID 29034212
Conditions: Panc-1 cell line; read-out: EC50 decrease of cell survival; cited from earlier work

**Q.** With `O=c1ccc2c(OCCCCOc3ccc(CCC[P+](c4ccccc4)(c4ccccc4)c4ccccc4)cc3)c3ccoc3cc2o1` [PAPTP] as the molecule, how does the EC50 read?
**A.** ~3 µM

**Q.** Which EC50 does the source give for `O=C(NCCC[P+](c1ccccc1)(c1ccccc1)c1ccccc1)Oc1ccc(OCCCCOc2c3ccoc3cc3oc(=O)ccc23)cc1` [PCARBTP] here?
**A.** ~6 µM

Biological target: T1, KV1.3 (Homo sapiens, UniProt P22001)
T1 sequence (P22001 whole entry): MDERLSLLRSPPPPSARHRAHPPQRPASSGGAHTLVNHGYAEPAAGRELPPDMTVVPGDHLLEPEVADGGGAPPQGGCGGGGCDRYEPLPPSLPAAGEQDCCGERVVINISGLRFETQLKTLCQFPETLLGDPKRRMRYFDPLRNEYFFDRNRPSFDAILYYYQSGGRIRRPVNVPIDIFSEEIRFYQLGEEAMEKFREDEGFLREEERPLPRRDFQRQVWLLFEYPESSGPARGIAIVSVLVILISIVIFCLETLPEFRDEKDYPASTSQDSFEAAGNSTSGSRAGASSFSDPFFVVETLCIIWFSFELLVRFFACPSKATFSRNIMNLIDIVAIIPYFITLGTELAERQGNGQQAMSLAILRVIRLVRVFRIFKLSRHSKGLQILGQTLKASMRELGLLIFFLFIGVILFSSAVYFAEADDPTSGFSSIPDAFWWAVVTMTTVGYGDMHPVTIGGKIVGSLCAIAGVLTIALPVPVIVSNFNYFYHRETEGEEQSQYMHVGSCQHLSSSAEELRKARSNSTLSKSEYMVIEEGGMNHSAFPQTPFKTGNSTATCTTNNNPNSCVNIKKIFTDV
Assay: KV1.3 inhibition, manual voltage-clamp on Xenopus laevis oocytes
Format: cell-based
Conditions: 10 μM; manual voltage-clamp on Xenopus laevis oocytes
Method: (§1) Stage V–VI oocytes were isolated by partial ovariectomy from Xenopus laevis frogs (African clawed frogs). […] After anaesthetizing the frogs by a 15-min submersion in 0.1% tricaine methanesulfonate (amino benzoic acid ethyl ester; Merck, Kenilworth, NJ, USA), pH 7.0, the oocytes were collected. The isolated oocytes were then washed with a 1.5 mg/mL collagenase solution for 2 h to remove the follicle layer.
(§2) Ion channels (Kv1.x, Kv2.1, Kv4.2, Kv10.1) were expressed in Xenopus laevis oocytes by linearization of the plasmids and subsequent in vitro transcription using a commercial T7 or SP6 mMESSAGE mMACHINE transcription kit (Ambion, Carlsbad, California, USA). Defolliculated Xenopus oocytes were then injected with 20–50 nL of the cRNA at a concentration of 1 ng/nL using a micro-injector (Drummond Scientific1, Broomall, PA, USA). The oocytes were incubated in a solution containing (in mM): NaCl, 96; KCl, 2; CaCl2, 1.8; MgCl2, 2 and HEPES, 5 (pH 7.5), supplemented with 50 mg/L gentamycin sulfate and 90 mg/L theophylline.
(§3) Two-electrode voltage-clamp recordings were performed at room temperature (18–22 °C) using a Geneclamp 500 amplifier (Molecular Devices, San Jose, CA, USA) and pClamp data acquisition (Axon Instruments, Union City, CA, USA) and using an integrated digital TEVC amplifier controlled by HiClamp, an automated Voltage-Clamp Screening System (Multi Channel Systems MCS GmbH, Reutlingen, Germany). Whole-cell currents from oocytes were recorded 1–4 days after injection. The bath solution composition was ND96 (in mM): NaCl, 96; KCl, 2; CaCl2, 1.8; MgCl2, 2 and HEPES, 5 (pH 7.5). Voltage and current electrodes were filled with a 3 M solution of KCl in H2O. […] The elicited Kv1.x, Kv2.1, Kv4.2 and Kv10.1 currents were filtered at 0.5 kHz and sampled at 2 kHz using a four-pole low-pass Bessel filter. Leak subtraction was performed using a P/4 protocol.
(§4) For the electrophysiological analysis of the compounds, a number of protocols were applied from a holding potential of −90 mV. Currents for Kv1.x, Kv2.1, Kv4.2 and Kv10.1 were evoked by 1 s depolarizing pulses either to 0 mV or to a range of voltage steps between −80 mV and +40 mV. For the analysis of the data, only the inhibition at the 0 mV step was used. The concentration dependency of all compounds was assessed by measuring the current inhibition in the presence of increasing compound concentrations. […] From this stock solution, adequate dilutions with a maximum of 0.5% DMSO were made for testing.
(§5) All electrophysiological data (Figure S1) are presented as means ± S.E.M of n ≥ three independent experiments unless otherwise indicated. […] The Dunnett test and one-way ANOVA were performed to calculate the significance of the induced inhibition compared to the control.

**Q.** For `COc1ccc(C2(CNC(=O)c3ccccc3OC)CCOCC2)cc1` [Compound 24], which inhibition at 10 µM is on record?
**A.** 59 ± 5%

**Q.** For `COc1ccc(C)cc1C(=O)NCC1(c2ccsc2)CCOCC1` [Compound 48], which inhibition at 10 µM is on record?
**A.** 42 ± 6%

**Q.** With `COc1ccccc1C(=O)NCC1(c2ccccc2)CCCC1` [Compound 10] as the molecule, how does the inhibition at 10 µM read?
**A.** < 10%

**Q.** With `COc1cccc(C2(CNC(=O)c3ccccc3OC)CCCCC2)c1` [Compound 19] as the molecule, how does the inhibition at 10 µM read?
**A.** 12 ± 2%

**Q.** Which inhibition at 10 µM does the source give for `O=C(NCC1(c2ccccc2)CCOCC1)c1ccoc1` [Compound 32] here?
**A.** 27 ± 6%

**Q.** For `COc1ccc(-c2csc(C3(CNC(=O)c4ccccc4OC)CCOCC3)n2)cc1` [Compound 39], which inhibition at 10 µM is on record?
**A.** < 10%

**Q.** With `COc1ccccc1C(=O)NCC1(c2ccc(C)cc2)CCOCC1` [Compound 25] as the molecule, how does the inhibition at 10 µM read?
**A.** 52 ± 8%

**Q.** Which inhibition at 10 µM does the source give for `COc1ccccc1C(=O)NCC1(c2ccc(C(F)(F)F)cc2)CCCCC1` [Compound 17] here?
**A.** < 10%

**Q.** For `COc1ccccc1CC(=O)NCC1(c2ccccc2)CCOCC1` [Compound 33], which inhibition at 10 µM is on record?
**A.** 38 ± 5%

**Q.** Which inhibition at 10 µM does the source give for `COc1ccc(C)cc1C(=O)NCC1(c2ccccc2)CCOCC1` [Compound 34] here?
**A.** 47 ± 1%

**Q.** For `CCOc1ccccc1C(=O)NCC1(c2ccsc2)CCOCC1` [Compound 47], which inhibition at 10 µM is on record?
**A.** 35 ± 8%

**Q.** For `COc1ccccc1C(=O)NCC1(c2cccc(C)c2)CCOCC1` [Compound 29], which inhibition at 10 µM is on record?
**A.** 87 ± 4%

**Q.** For `COc1ccc(C2(CNC(=O)c3ccccc3OC)CCCC2)cc1` [Compound 6], which inhibition at 10 µM is on record?
**A.** < 10%

**Q.** For `COc1ccccc1C(=O)NCC1(c2csc(C)n2)CCOCC1` [Compound 41], which inhibition at 10 µM is on record?
**A.** 41 ± 10%

**Q.** Which inhibition at 10 µM does the source give for `COc1cc(C)ccc1C(=O)NCC1(c2ccsc2)CCOCC1` [Compound 51] here?
**A.** 82 ± 1%

**Q.** With `COc1ccccc1C(=O)NCC1(c2ccc(C(F)(F)F)cc2)CCOCC1` [Compound 22] as the molecule, how does the inhibition at 10 µM read?
**A.** < 10%

**Q.** Which inhibition at 10 µM does the source give for `COc1ccc(C2(CNC(=O)c3ccccc3OC)CCCCC2)cc1OC` [Compound 15] here?
**A.** < 10%

**Q.** For `O=C(NCC1(c2ccccc2)CCOCC1)c1ccsc1` [Compound 31], which inhibition at 10 µM is on record?
**A.** 11 ± 4%

**Q.** Which inhibition at 10 µM does the source give for `COc1ccccc1C(=O)NCC1(c2ccccc2OC)CCCC1` [Compound 7] here?
**A.** < 10%

**Q.** With `COc1ccc(C2(CNC(=O)c3ccccc3OC)CCCCC2)cc1` [Compound 16] as the molecule, how does the inhibition at 10 µM read?
**A.** < 10%

**Q.** Which inhibition at 10 µM does the source give for `COc1ccc(C2(CNC(=O)c3ccccc3OC)CCOCC2)cc1OC` [Compound 23] here?
**A.** < 10%

**Q.** With `COc1cccc(C2(CNC(=O)c3ccccc3OC)CCCC2)c1` [Compound 11] as the molecule, how does the inhibition at 10 µM read?
**A.** 18 ± 3%

**Q.** With `COc1ccccc1CC(=O)NCC1(c2ccsc2)CCOCC1` [Compound 49] as the molecule, how does the inhibition at 10 µM read?
**A.** 43 ± 1%

**Q.** For `COc1ccccc1C(=O)NCC1(c2cccs2)CCCC1` [Compound 13], which inhibition at 10 µM is on record?
**A.** 57 ± 9%

**Q.** With `COc1cccc(C2(CNC(=O)c3ccccc3OC)CCOCC2)c1` [Compound 28] as the molecule, how does the inhibition at 10 µM read?
**A.** 88 ± 4%

**Q.** Which inhibition at 10 µM does the source give for `COc1ccccc1C(=O)NCC1(c2ccccc2OC)CCCCC1` [Compound 18] here?
**A.** < 10%

**Q.** With `COc1ccccc1C(=O)NCC1(c2ccc3c(c2)OCO3)CCCC1` [Compound 9] as the molecule, how does the inhibition at 10 µM read?
**A.** < 10%

**Q.** For `COc1ccccc1C(=O)NCC1(c2cccc(C)c2)CCCC1` [Compound 12], which inhibition at 10 µM is on record?
**A.** 16 ± 4%

**Q.** For `COc1cc(C)ccc1C(=O)NCC1(c2ccccc2)CCOCC1` [Compound 36], which inhibition at 10 µM is on record?
**A.** 89 ± 4%

**Q.** For `COc1ccccc1C(=O)NCC1(c2ccccc2OC)CCOCC1` [Compound 27], which inhibition at 10 µM is on record?
**A.** 78 ± 4%

**Q.** For `COc1cccc(OC)c1C(=O)NCC1(c2ccccc2)CCOCC1` [Compound 30], which inhibition at 10 µM is on record?
**A.** < 10%

**Q.** Which inhibition at 10 µM does the source give for `COc1ccccc1C(=O)NCC1(c2nc(-c3ccccc3)cs2)CCOCC1` [Compound 40] here?
**A.** < 10%

**Q.** With `COc1ccc(F)cc1C(=O)NCC1(c2ccsc2)CCOCC1` [Compound 50] as the molecule, how does the inhibition at 10 µM read?
**A.** 47 ± 9%

**Q.** For `COc1cccc(OC)c1C(=O)NCC1(c2ccsc2)CCOCC1` [Compound 45], which inhibition at 10 µM is on record?
**A.** < 10%

**Q.** With `COc1ccccc1C(=O)NCC1(c2ccc3c(c2)OCO3)CCOCC1` [Compound 26] as the molecule, how does the inhibition at 10 µM read?
**A.** 60 ± 9%

**Q.** Which inhibition at 10 µM does the source give for `CCOc1ccccc1C(=O)NCC1(c2ccccc2)CCOCC1` [Compound 35] here?
**A.** 74 ± 9%

**Q.** Which inhibition at 10 µM does the source give for `COc1ccccc1C(=O)NCC1(c2cscn2)CCOCC1` [Compound 42] here?
**A.** 54 ± 10%

**Q.** For `COc1ccccc1C(=O)NCC1(c2csc3ccccc23)CCOCC1` [Compound 38], which inhibition at 10 µM is on record?
**A.** < 10%

**Q.** For `COc1ccccc1C(=O)NCC1(c2ccsc2)CCCCC1` [Compound 21], which inhibition at 10 µM is on record?
**A.** 30 ± 8%

**Q.** With `COc1ccccc1C(=O)NCC1(c2cccc(C)c2)CCCCC1` [Compound 20] as the molecule, how does the inhibition at 10 µM read?
**A.** 27 ± 2%

**Q.** For `COc1ccc(C2(CNC(=O)c3ccccc3OC)CCCC2)cc1OC` [Compound 8], which inhibition at 10 µM is on record?
**A.** < 10%

**Q.** For `O=C(NCC1(c2ccsc2)CCOCC1)c1ccoc1` [Compound 46], which inhibition at 10 µM is on record?
**A.** 21 ± 6%

Same assay, conditions: KV1.3; manual voltage-clamp, Xenopus laevis oocytes

**Q.** For `COc1ccccc1C(=O)NCC1(c2cccc(C)c2)CCOCC1` [Compound 29], which IC50 is on record?
**A.** 4.3 µM

**Q.** For `COc1cccc(C2(CNC(=O)c3ccccc3OC)CCOCC2)c1` [Compound 28], which IC50 is on record?
**A.** 5.75 µM

Biological target: T1, KV1.3
Assay: KV1.3 inhibition, HiClamp on Xenopus laevis oocytes
Format: cell-based
Conditions: Xenopus laevis oocytes (marked * in Table 2)
Method: as §1, §2, §3, §4, §5

**Q.** For `COc1cc(C)ccc1C(=O)NCC1(c2ccsc2)CCOCC1` [Compound 51], which IC50 is on record?
**A.** 2.92 µM

**Q.** For `COc1cc(C)ccc1C(=O)NCC1(c2ccccc2)CCOCC1` [Compound 36], which IC50 is on record?
**A.** 1.65 µM

Tested on: Colo-357
Assay: not given
Parameters: method as in PMID 29034212
Conditions: read-out: EC50 cell death; cited from earlier work

**Q.** With `O=c1ccc2c(OCCCCOc3ccc(CCC[P+](c4ccccc4)(c4ccccc4)c4ccccc4)cc3)c3ccoc3cc2o1` [PAPTP] as the molecule, how does the EC50 read?
**A.** 3.7 µM

**Q.** Which EC50 does the source give for `O=C(NCCC[P+](c1ccccc1)(c1ccccc1)c1ccccc1)Oc1ccc(OCCCCOc2c3ccoc3cc3oc(=O)ccc23)cc1` [PCARBTP] here?
**A.** 2 µM

Source: PMC9179341, “Design of New Potent and Selective Thiophene-Based KV1.3 Inhibitors and Their Potential for Anticancer Activity” (Cancers, 2022)
